From patent publication US9518046B2 (Calitor Sciences, LLC, priority 2015, dated 2016)

Legend:
[1] = literature; cited from earlier work
[2] = literature; cited from earlier work; remark: listed apart in the source
[3] = Pharmacokinetics after intravenous and oral administration in monkeys; type: in vivo; conditions: Monkey; iv dosing 1 mg/kg
Experimental: (§1) The LC/MS/MS system used in the analysis consists of an Agilent 1200 Series vacuum degasser, binary pump, well-plate autosampler, thermostatted column compartment, the Agilent G6430 Triple Quadrupole Mass Spectrometer with an electrosprayionization (ESI) source. Quantitative analysis was carried out using MRM mode. The parameters for MRM transitions are in the Table A.
(§2) An Agilent XDB-C18, 2.1×30 mm, 3.5 M column was used for the analysis. 5 L of the samples were injected. Analysis condition: The mobile phase was 0.1% formic acid in water (A) and 0.1% formic acid in methanol (B). The flow rate was 0.4 mL/min. And the gradient of Mobile phase was in the Table B.
(§3) Alternatively, an Agilent 6330 series LC/MS/MS spectrometer equipped with G1312A binary pumps, a G1367A autosampler and a G1314C UV detector were used in the analysis. An ESI source was used on the LC/MS/MS spectrometer. The analysis was done in positive ion mode as appropriate and the MRM transition for each analyte was optimized using standard solution. A Capcell MP-C18 100×4.6 mm I.D., […] column (Phenomenex, Torrance, Calif., USA) was used during the analysis. The mobile phase was 5 mM ammonia acetate, 0.1% MeOH in water (A): 5 mM ammonia acetate, 0.1% MeOH in acetonitrile (B) (70:30, v/v). The flow rate was 0.6 mL/min. Column was maintained at ambient temperature. 20 μL of the samples were injected.
(§4) The compounds disclosed herein are assessed in pharmacokinetic studies in mice, rats, dogs or monkeys. The compounds are administered as a water solution, 2% HPMC+1% TWEEN®80 in water solution, 5% DMSO+5% solutol in saline, 4% MC suspension or capsule. For the intravenous administration, the animals are generally given at 1 or 2 mg/kg dose. For the oral (p.o.) dosing, mice and rats are generally given 5 or 10 mg/kg dose, and dogs and monkeys are generally given 10 mg/kg dose. […] The plasma solutions are collected, stored at −20° C. or −70° C. until analyzed by LC/MS/MS as described above.

[4] = Pharmacokinetics after intravenous and oral administration in mice; type: in vivo; conditions: Mouse; iv dosing 1 mg/kg
Experimental: as §1, §2
as §3, with “The mobile phase was 5 mM ammonia acetate, 0.1% MeOH in water (A): 5 mM ammonia acetate, 0.1% MeOH in acetonitrile (B) (70:30, v/v). The flow rate was 0.6 mL/min. Column was maintained at ambient temperature. 20 μL of the samples were injected.” left out
The compounds disclosed herein are assessed in pharmacokinetic studies in mice, rats, dogs or monkeys. […] The plasma solutions are collected, stored at −20° C. or −70° C. until analyzed by LC/MS/MS as described above.

[5] = Pharmacokinetics after intravenous and oral administration in rats; type: in vivo; conditions: Rats; iv dosing; dose 1 mg/kg (0.5 for Ex. 1, 10, 11, 35; 0.48 for Ex. 24)
Summary of the method: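 Dosing used solution, suspension or capsule formulations: 1 or 2 mg/kg IV in all species; PO 5 or 10 mg/kg in mice and rats, 10 mg/kg in dogs and monkeys. Plasma sampled from 0.083 or 0.25 h up to 24 h post-dose; concentrations determined by LC/MS/MS in MRM mode.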

[6] = Pharmacokinetics after intravenous and oral administration in dogs; type: in vivo; conditions: Dog; iv dosing 1 mg/kg
Experimental: as §1, §2, §3, §4

[7] = murine model of asthma, ovalbumin-induced airway inflammation; literature; cited from earlier work
protein kinases = conditions: literature; cited from earlier work
PI3Kδ = conditions: literature; cited from earlier work

Structure (SMILES): O=C1NC(=O)/C(=C\c2ccc3nccnc3c2)S1 [AS 605240]
- effect on onset of disease in model of systemic lupus erythematosis [1]: delay onset of disease
- efficacy in mouse model of rheumatoid arthritis [2]: efficacious

Structure (SMILES): Cc1nnc(-c2c(N)ncnc2N[C@@H](C)c2nc3cccc(Cl)c3c(=O)n2-c2ccccc2)o1 [Ex. 64, (S)-2-(1-((6-amino-5-(5-methyl-1,3,4-oxadiazol-2-yl)pyrimidin-4-yl)amino)ethyl)-5-chloro-3-phenylquinazolin-4(3H)-one]
- CL/F [3]: 7.17 mL/min/kg
- CL/F [4]: 18.8 mL/min/kg
- CL/F [5]: 28.3 mL/min/kg
- CL/F [6]: 1.83 mL/min/kg

Structure (SMILES): Cc1ccccc1-n1c(Cn2cnc3c(N)ncnc32)nc2cccc(C)c2c1=O [IC87114]
- effect on inflammation and disease [7]: significantly ameliorate inflammation and disease
- activity against any protein kinases tested (protein kinases): no activity
- inhibits PI3Kδ (PI3Kδ): high nanomolar range (triple digit)
